# Measurements reported in ChEMBL document CHEMBL1201862, “PubChem BioAssay data set” (2004).
# Calls of active or inactive are those of the source.
# Legend:
# ORF 73 = target: T1, ORF 73 (Human herpesvirus 8, UniProt O40947); assay: inhibitors of C-LANA binding to LBS DNA, dose response, biochemical, fluorescence polarization, cherry-picked samples (AID 504725); set-up: species or system Human gammaherpesvirus 8;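 note: fluorescence polarization of a labeled DNA duplex reporting LANA DNA binding; potency is for inhibitors that block LANA binding to the DNA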
# T1 sequence (O40947 whole entry): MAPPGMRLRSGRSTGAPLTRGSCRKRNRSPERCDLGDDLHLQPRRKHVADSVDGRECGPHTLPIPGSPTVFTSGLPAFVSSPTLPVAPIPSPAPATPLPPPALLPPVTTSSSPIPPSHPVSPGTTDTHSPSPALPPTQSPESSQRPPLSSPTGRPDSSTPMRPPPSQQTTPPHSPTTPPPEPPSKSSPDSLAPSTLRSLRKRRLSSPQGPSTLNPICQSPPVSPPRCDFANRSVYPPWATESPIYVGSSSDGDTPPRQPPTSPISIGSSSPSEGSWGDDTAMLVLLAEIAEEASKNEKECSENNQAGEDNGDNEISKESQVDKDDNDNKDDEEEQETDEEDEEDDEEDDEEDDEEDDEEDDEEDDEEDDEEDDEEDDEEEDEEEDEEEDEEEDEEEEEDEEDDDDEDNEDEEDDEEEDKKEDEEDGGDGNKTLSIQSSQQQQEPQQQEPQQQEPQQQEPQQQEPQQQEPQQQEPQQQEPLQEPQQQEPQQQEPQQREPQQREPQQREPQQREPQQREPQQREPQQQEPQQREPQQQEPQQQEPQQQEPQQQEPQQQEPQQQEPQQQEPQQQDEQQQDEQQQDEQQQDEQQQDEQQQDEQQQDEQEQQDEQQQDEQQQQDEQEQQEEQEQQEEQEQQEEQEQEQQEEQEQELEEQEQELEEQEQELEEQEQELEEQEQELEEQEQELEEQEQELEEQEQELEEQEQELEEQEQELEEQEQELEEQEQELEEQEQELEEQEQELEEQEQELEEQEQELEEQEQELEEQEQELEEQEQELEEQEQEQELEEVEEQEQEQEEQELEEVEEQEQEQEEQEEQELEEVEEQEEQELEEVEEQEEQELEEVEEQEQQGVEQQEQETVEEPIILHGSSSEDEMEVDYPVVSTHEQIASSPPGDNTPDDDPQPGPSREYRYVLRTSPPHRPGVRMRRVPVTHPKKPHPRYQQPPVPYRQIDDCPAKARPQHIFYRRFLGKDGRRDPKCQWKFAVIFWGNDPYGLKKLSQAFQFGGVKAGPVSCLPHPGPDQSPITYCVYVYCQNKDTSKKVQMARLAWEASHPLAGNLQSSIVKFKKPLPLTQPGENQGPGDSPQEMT
# Troponin, cardiac muscle = Troponin, cardiac muscle (Homo sapiens, UniProt P19429+P45379+P63316); assay: inhibitors of cardiac thin filament calcium sensitivity, dose response, biochemical, fluorescence, cardiac regulated thin filaments, triplicate IC50 (AID 504742); format: protein-complex assay
# [1] = target: T2, Rac GTPase-activating protein 1 (Homo sapiens, UniProt Q9H0H5); assay: MgcRacGAP GTPase-activating activity inhibitors, confirmation, biochemical, ADP Hunter fluorescence, primary and confirmatory (AID 624330); format: functional
# T2 sequence (Q9H0H5 whole entry): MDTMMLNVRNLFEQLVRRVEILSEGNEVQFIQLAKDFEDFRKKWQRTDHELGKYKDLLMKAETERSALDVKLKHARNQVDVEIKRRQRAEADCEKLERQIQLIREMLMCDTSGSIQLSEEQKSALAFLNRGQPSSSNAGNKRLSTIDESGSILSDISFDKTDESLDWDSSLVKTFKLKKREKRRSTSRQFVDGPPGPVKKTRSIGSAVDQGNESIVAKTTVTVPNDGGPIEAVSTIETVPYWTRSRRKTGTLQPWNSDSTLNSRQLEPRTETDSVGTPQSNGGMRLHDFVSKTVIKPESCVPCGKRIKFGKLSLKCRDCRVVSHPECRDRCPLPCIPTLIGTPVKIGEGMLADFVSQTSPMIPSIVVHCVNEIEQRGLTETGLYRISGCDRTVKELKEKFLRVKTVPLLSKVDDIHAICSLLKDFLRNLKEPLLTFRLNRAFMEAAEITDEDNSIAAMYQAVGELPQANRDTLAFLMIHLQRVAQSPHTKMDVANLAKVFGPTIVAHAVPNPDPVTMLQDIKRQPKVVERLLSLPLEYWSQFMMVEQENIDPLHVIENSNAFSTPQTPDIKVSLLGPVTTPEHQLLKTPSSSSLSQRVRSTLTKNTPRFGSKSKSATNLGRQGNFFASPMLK
# [2] = target: G-protein coupled receptor 55 (Homo sapiens, UniProt Q9Y2T6); assay: GPR55 agonists via beta-arrestin recruitment, primary screen, imaging, U2OS cells, beta-arrestin-GFP redistribution (AID 1961); format: functional
# [3] = target: T3, Replicative DNA helicase DnaB (Mycobacterium tuberculosis, UniProt P9WMR3); assay: DnaB intein splicing inhibitors, dose response, biochemical, cell-free fluorescence (AID 449749); format: functional
# T3 sequence (P9WMR3 whole entry): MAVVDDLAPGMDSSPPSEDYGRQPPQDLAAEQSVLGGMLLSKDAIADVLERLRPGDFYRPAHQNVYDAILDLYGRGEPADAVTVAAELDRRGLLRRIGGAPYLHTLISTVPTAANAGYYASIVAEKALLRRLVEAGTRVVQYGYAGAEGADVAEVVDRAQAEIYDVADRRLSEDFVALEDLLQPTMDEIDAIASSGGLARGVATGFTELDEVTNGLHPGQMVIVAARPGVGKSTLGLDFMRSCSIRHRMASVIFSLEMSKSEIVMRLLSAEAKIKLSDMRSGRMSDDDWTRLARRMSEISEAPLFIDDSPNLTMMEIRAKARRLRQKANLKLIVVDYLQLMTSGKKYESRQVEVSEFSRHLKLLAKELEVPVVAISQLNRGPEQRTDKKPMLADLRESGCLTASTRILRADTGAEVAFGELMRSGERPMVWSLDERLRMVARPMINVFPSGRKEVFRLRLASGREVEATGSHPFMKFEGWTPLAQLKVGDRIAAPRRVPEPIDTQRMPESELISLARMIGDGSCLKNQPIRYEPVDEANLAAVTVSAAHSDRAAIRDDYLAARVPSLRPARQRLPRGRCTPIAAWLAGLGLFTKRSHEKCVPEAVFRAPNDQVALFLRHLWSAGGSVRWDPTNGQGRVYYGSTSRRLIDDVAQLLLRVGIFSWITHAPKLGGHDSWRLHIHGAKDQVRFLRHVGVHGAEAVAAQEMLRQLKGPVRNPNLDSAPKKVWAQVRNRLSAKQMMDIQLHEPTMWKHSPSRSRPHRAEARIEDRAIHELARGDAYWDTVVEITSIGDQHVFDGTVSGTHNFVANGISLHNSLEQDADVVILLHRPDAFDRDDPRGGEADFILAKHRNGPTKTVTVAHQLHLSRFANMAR
# Protein RecA = target: T4, Protein RecA (Mycobacterium tuberculosis, UniProt P9WHJ3); assay: Fluorescence Cell-Free Homogeneous Dose Retest to Identify Inhibitors of RecA-Intein Splicing Activity. [Related pubchem assays (depositor defined):AID2097, AID2223, AID489010, AID492950]; format: functional
# T4 sequence (P9WHJ3 whole entry): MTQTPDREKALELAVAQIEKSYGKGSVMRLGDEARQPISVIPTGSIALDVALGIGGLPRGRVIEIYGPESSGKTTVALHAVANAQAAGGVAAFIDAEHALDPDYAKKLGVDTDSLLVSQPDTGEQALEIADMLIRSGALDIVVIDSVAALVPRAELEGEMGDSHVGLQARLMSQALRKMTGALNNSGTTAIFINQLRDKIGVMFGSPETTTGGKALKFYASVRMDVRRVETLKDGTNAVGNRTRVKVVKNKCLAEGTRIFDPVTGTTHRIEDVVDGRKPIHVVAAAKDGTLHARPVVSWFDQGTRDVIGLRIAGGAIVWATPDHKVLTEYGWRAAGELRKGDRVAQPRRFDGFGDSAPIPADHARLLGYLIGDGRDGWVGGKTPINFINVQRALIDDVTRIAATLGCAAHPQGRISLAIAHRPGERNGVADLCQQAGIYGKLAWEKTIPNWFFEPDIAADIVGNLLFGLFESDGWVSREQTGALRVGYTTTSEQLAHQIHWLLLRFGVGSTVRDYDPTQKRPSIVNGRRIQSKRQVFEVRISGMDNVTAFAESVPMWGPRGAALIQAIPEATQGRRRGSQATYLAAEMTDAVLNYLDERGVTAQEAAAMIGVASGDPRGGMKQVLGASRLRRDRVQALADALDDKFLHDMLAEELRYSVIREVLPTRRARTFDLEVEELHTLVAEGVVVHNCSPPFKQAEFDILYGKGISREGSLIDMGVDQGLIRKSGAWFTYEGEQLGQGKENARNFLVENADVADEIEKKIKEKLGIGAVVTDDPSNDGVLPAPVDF
# [4] = NIH-3T3 fibroblast cytotoxicity, dose response, cytotoxicity control, cell-based, fluorescence, Alamar Blue, secondary assay (AID 2327); format: functional;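 note: NIH-3T3 mouse fibroblasts cultured with fluconazole at 8 µg/mL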
# [5] = tested on: Streptococcus sp. 'group A'; assay: growth inhibition of control SK(-) GAS strain, dose response, counter-screen for streptokinase expression inhibitor project, luminescence, kanamycin, BacTiterGlo, confirmation (AID 1900); format: functional, organism-based
# [6] = C. albicans growth with fluconazole, confirmation, fluorescence, retest (AID 2467); format: functional, cell-based
# Streptococcus = assay: Group A Streptococcus viability loss, dose response, counter-screen for streptokinase expression inhibitor project, luminescence, BacTiterGlo (AID 1915); format: functional, organism-based;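 note: potency for reduction of bacterial viability or growth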
# Caspase-3 = target: T5, Caspase-3 (Homo sapiens, UniProt P42574); assay: procaspase-3 activators, dose response, biochemical, absorbance (AID 489014)
# T5 sequence (P42574 whole entry): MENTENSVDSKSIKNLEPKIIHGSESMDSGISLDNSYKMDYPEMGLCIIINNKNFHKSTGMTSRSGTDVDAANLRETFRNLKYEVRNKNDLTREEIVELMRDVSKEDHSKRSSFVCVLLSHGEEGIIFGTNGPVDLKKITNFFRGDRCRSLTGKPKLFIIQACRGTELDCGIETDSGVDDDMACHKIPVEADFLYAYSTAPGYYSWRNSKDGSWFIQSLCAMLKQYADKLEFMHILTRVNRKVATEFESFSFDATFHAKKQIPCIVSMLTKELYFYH
# [7] = THP-1 cell cytotoxicity, dose response, cytotoxicity control for non-replicating M. tuberculosis project (AID 489025); format: functional
# Caspase-7 = target: T6, Caspase-7 (Homo sapiens, UniProt P55210); assay: procaspase-7 activators, dose response, counter-screen for procaspase-3 activator project, biochemical, absorbance (AID 489013)
# T6 sequence (P55210 whole entry): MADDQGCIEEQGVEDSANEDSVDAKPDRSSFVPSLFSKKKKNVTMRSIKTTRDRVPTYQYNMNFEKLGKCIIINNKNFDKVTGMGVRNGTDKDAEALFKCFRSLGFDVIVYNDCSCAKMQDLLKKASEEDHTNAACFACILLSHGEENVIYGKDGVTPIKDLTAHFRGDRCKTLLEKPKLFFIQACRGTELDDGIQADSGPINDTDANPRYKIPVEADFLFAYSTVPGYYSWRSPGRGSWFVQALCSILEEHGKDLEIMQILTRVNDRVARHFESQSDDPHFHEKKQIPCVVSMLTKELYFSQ
# [8] = Vero E6 cell cytotoxicity, dose response, cytotoxicity control for non-replicating M. tuberculosis project, secondary assay (AID 492998); format: functional, VeroE6; conditions: Vero C1008
# cells = format: functional
# Vero [9] = assay: cells; format: functional, cell-based; conditions: Chlorocebus sabaeus
# Vero [10] = assay: cells; format: functional; conditions: Chlorocebus sabaeus
# [11] = target: T7, Heat shock factor protein 1 (Mus musculus, UniProt P38532); assay: inhibition of MG132-induced HSE-luciferase signal, confirmation, cell-based, NIH3T3, luminescence, dose retest (AID 2382); format: functional;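 note: NIH3T3 fibroblasts with HSF1-driven luciferase reporter stressed by proteasome inhibitor MG132; luminescence from HSF1-driven luciferase expression after 8 hours of MG132 stress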
# T7 sequence (P38532 whole entry): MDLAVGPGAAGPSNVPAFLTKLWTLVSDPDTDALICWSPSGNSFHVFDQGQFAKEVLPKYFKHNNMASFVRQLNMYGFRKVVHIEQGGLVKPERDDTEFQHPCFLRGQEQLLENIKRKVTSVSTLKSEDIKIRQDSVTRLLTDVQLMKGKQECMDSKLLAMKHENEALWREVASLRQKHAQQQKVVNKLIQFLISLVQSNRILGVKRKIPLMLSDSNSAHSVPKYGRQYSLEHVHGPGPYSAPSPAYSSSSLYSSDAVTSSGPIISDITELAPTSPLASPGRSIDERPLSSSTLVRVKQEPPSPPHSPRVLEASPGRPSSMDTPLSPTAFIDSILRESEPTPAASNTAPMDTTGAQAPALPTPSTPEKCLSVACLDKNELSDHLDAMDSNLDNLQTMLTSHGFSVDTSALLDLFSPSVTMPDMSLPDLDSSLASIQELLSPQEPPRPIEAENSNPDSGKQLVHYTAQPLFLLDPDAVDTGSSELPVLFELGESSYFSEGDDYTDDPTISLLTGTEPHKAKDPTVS
compound,measurement,setting,value
O=C1C(=Cc2ccco2)CCC1=Cc1ccco1,AC50,ORF 73,63 µM (active)
same,IC50,"Troponin, cardiac muscle",> 71.5 µM (inactive)
same,IC50,[1],32.4 µM (active)
Cc1ccc(C)c(-c2ccc(=O)n(Cc3cccc(Br)c3)n2)c1,EC50,[2],3.48 µM (active)
same,AC50,[3],4.88 µM (active)
same,EC50,Protein RecA,24.1 µM (active)
CC(=O)Oc1c(-c2ccc(Br)o2)oc2ccccc2c1=O,EC50,[4],> 150 µM (inactive)
same,EC50,[5],2.26 µM (active)
same,EC50,[6],1.36 µM (active)
same,EC50,Streptococcus,9.2 µM (active)
same,EC50,Caspase-3,33.4 µM (inactive)
same,CC50,[7],> 40 µM (active)
same,EC50,Caspase-7,> 85.3 µM (inactive)
same,CC50,[8],16.3 µM (active)
same,IC50,cells,4.63 µM (active)
Cc1ccc(C)c(CN2C(=O)c3ccccc3[S+]([O-])c3ccc(C(=O)N4CCN(c5ccccn5)CC4)cc32)c1 (stereo unspecified),EC50,[2],1.32 µM (active)
same,IC50,Vero [9],2.51 µM (active)
same,CC50,Vero [10],13.7 µM (active)
Cc1c(Cc2ccccc2)sc(/N=C/c2c(O)ccc3ccccc23)c1C(N)=O,EC50,[11],> 195 µM (not active)
same,EC50,Caspase-3,> 85.3 µM (inactive)
same,EC50,Caspase-7,> 85.3 µM (inactive)
